The results in this text go back to patent US12410194B2, “Potent and selective azaindole inhibitors of CDK8 and CDK19” (priority 2019, dated 2025).

In general, IC50 refers to the concentration that gives 50% inhibition. A higher IC50 goes with a need for much substance.

Molecules are shown by their SMILES.

For the assay, the target named is CDK8/cyclin C (Homo sapiens (Human), UniProt P49336). The assay can be described thus: LanthaScreen Eu Kinase Binding Assay for CDK8/cyclin C. Conditions: 10-point curve, 4-fold dilution series, 60 min at room temperature. On the technique in general: Time-resolved FRET reads energy transfer from a long-lived donor to a nearby acceptor.
Chain of CDK8/cyclin C (P49336 whole entry, looked up): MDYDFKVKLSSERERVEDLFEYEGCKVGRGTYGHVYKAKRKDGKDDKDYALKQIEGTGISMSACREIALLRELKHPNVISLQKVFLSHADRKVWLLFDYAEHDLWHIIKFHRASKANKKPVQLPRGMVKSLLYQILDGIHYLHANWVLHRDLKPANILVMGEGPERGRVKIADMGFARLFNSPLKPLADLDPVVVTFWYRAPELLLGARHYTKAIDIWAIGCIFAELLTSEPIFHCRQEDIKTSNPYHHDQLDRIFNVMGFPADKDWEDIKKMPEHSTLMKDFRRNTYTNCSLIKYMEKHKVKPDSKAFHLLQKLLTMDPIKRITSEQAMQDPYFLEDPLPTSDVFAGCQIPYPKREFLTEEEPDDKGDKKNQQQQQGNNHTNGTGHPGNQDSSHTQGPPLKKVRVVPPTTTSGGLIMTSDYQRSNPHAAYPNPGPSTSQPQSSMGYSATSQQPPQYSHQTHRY
Chain of CDK8/cyclin C (P24863 whole entry partner, looked up): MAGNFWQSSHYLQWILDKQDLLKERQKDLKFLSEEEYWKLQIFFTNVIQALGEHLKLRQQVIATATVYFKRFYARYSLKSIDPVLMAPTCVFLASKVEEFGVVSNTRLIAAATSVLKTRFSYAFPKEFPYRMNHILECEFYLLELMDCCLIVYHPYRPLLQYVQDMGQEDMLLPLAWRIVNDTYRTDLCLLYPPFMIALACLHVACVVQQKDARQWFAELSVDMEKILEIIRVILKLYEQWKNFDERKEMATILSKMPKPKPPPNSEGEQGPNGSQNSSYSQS

The compound `O=C1NCCC12CCN(c1c(-c3ccc4scnc4c3)cnc3[nH]ccc13)CC2` [Compound 002, 8-(5-(benzo[d]thiazol-5-yl)-1H-pyrrolo[2,3-b]pyridin-4-yl)-2,8-diazaspiro[4.5]decan-1-one] came in with a half-inhibitory concentration (IC50) of 6.46 nM.

The compound `O=C1NCCC12CCN(c1c(-c3ccc4ncsc4c3)cnc3[nH]ccc13)CC2` [Compound 004, 8-(5-(benzo[d]thiazol-6-yl)-1H-pyrrolo[2,3-b]pyridin-4-yl)-2,8-diazaspiro[4.5]decan-1-one] displayed a 50% inhibitory concentration (IC50) of 24.5 nM.

In the case of `Cn1cnc2cc(-c3cnc4[nH]ccc4c3N3CCC4(CCNC4=O)CC3)ccc21` [Compound 005, 8-(5-(1-methyl-1H-benzo[d]imidazol-5-yl)-1H-pyrrolo[2,3-b]pyridin-4-yl)-2,8-diazaspiro[4.5]decan-1-one], the IC50 was found to be 32.2 nM.

`Cn1ncc2cc(-c3cnc4[nH]ccc4c3N3CCC4(CCCNC4=O)CC3)ccc21` [Compound 006, 9-(5-(1-methyl-1H-indazol-5-yl)-1H-pyrrolo[2,3-b]pyridin-4-yl)-2,9-diazaspiro[5.5]undecan-1-one]: the IC50 turned out to be 3 nM.

`O=C1NCCC12CCN(c1c(-c3ccc4ncnn4c3)cnc3[nH]ccc13)CC2` [Compound 007, 8-(5-([1,2,4]triazolo[1,5-a]pyridin-6-yl)-1H-pyrrolo[2,3-b]pyridin-4-yl)-2,8-diazaspiro[4.5]decan-1-one] displayed a half-inhibitory concentration (IC50) of 274 nM.

Compound `O=C1NCCC12CCN(c1c(-c3ccc4[nH]cnc4c3)cnc3[nH]ccc13)CC2` [Compound 008, 8-(5-(1H-benzo[d]imidazol-5-yl)-1H-pyrrolo[2,3-b]pyridin-4-yl)-2,8-diazaspiro[4.5]decan-1-one] displayed an IC50 of 4.97 nM.

With `O=C1NCCC12CCN(c1c(-c3ccn4ccnc4c3)cnc3[nH]ccc13)CC2` [Compound 009, 8-(5-(imidazo[1,2-a]pyridin-7-yl)-1H-pyrrolo[2,3-b]pyridin-4-yl)-2,8-diazaspiro[4.5]decan-1-one], the IC50 was 76.4 nM.

As for `Cn1ncc2cc(-c3cnc4[nH]ccc4c3N3CCC4(CC3)CNC4=O)ccc21` [Compound 010, 7-(5-(1-methyl-1H-indazol-5-yl)-1H-pyrrolo[2,3-b]pyridin-4-yl)-2,7-diazaspiro[3.5]nonan-1-one], the half-maximal inhibitory concentration (IC50) is 6.3 nM.

As for `Cn1ncc2cc(-c3cnc4[nH]ccc4c3N3CCC4(CC3)CNC(=O)O4)ccc21` [Compound 011, 8-(5-(1-methyl-1H-indazol-5-yl)-1H-pyrrolo[2,3-b]pyridin-4-yl)-1-oxa-3,8-diazaspiro[4.5]decan-2-one], the IC50 was 7 nM.

In turn, `Cn1ncc2cc(-c3cnc4[nH]ccc4c3N3CCC4(CC3)NC(=O)NC4=O)ccc21` [Compound 014, 8-(5-(1-methyl-1H-indazol-5-yl)-1H-pyrrolo[2,3-b]pyridin-4-yl)-1,3,8-triazaspiro[4.5]decane-2,4-dione] came in with a concentration for half-maximal inhibition (IC50) of 3 nM.

In the case of `Cn1ncc2cc(-c3cnc4[nH]cnc4c3N3CCC4(CCNC4=O)CC3)ccc21` [Compound 016, 8-(6-(1-methyl-1H-indazol-5-yl)-3H-imidazo[4,5-b]pyridin-7-yl)-2,8-diazaspiro[4.5]decan-1-one], the IC50 worked out at 10 nM.

With `Cn1ncc2cc(-c3cnc4[nH]ccc4c3N3CCC4(CCNC4=O)C3)ccc21` (stereo not shown) [Compound 017, 7-(5-(1-methyl-1H-indazol-5-yl)-1H-pyrrolo[2,3-b]pyridin-4-yl)-2,7-diazaspiro[4.4]nonan-1-one], the concentration for half-maximal inhibition (IC50) was determined as 55 nM.

The compound `Cn1ncc2cc(-c3cnc4[nH]cc(Cl)c4c3N3CCC4(CCNC4=O)CC3)ccc21` [Compound 018, 8-(3-chloro-5-(1-methyl-1H-indazol-5-yl)-1H-pyrrolo[2,3-b]pyridin-4-yl)-2,8-diazaspiro[4.5]decan-1-one] came in with a half-maximal inhibitory concentration (IC50) of 1.73 nM.

`Cn1ncc2cc(-c3cnc4sccc4c3N3CCC4(CCNC4=O)CC3)ccc21` [Compound 019, 8-(5-(1-methyl-1H-indazol-5-yl)thieno[2,3-b]pyridin-4-yl)-2,8-diazaspiro[4.5]decan-1-one] gave an IC50 of 206 nM.

`Cn1ncc2cc(-c3cnc4[nH]nc(Cl)c4c3N3CCC4(CCNC4=O)CC3)ccc21` [Compound 020] registered an IC50 of 1.37 nM.

Compound `Cc1n[nH]c2ncc(-c3ccc4c(cnn4C)c3)c(N3CCC4(CCNC4=O)CC3)c12` [Compound 021] registered an IC50 of 36 nM.
